In publication PMC6514686, “Tri-Cyclic Nucleobase Analogs and Their Ribosides as Substrates of Purine-Nucleoside Phosphorylases. II Guanine and Isoguanine Derivatives” (Molecules, 2019):
Where a chain is given by its changes, count along the chain named. Where two headings read alike, the source gives them in different places. One block for each molecule: values may come before it.

Legend:
E. coli PNP [1] = biological target: T1, E. coli PNP (Escherichia coli, UniProt P0ABP8); assay: phosphorolysis of nucleosides in phosphate buffer by E. coli PNP; format: biochemical; conditions: for phosphorolysis (in words): 50 mM phosphate buffer, pH 6.5
T1 construct: made in house; host or cells: E. coli
Method: (§1) For kinetic analyses, enzymatic ribosylation reactions were carried out in 1 mL cuvettes (pathlength 4 mm) in ~50 mM HEPES buffer, pH 7.3, using ca. 0.5 mM R1P as a ribose source. On a larger scale, reactions were run in Eppendorf tubes, volume 2–3 mL, using either R1P or 7-methylguanosine as ribose sources. Phosphorolysis reactions were run in 50 mM phosphate buffer, pH 7.0 or 6.5. Data were analyzed by standard methods (see Supplementary Materials).

calf PNP [2] = biological target: T2, calf PNP (Bos taurus, UniProt P55859); assay: phosphorolysis of nucleosides in phosphate buffer by calf PNP; format: biochemical
T2 construct: made in house; host or cells: E. coli
T2 sequence (P55859 1-289): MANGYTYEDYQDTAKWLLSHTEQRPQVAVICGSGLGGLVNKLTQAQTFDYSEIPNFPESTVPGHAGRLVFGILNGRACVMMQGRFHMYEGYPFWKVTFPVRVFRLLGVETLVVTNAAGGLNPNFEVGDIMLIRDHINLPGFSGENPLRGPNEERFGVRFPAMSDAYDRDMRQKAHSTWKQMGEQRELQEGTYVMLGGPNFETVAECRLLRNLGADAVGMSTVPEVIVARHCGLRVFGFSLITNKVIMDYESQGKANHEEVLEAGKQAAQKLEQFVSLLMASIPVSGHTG
Method: as §1

E.coli PNP-mutantD204N = biological target: T3, E.coli PNP-mutantD204N (Escherichia coli, UniProt P0ABP8, D205N); assay: enzymatic ribosylation by α-D-ribose-1-phosphate, E. coli PNP D204N mutant; format: biochemical; conditions: for Vmax (relative): relative to Vmax of guanine ribosylation under the same conditions (=100), 40 mM HEPES, pH 7, error ~10%
T3 construct: made in house; host or cells: E. coli
Method: as §1
(§2) Recombinant E. coli and calf spleen PNPs as well as their mutated forms were expressed in E. coli and purified according to the procedures described earlier.

[3] = biological target: T4, calf PNP-wt (calf spleen purine-nucleoside phosphorylase) (Bos taurus, UniProt P55859); assay: enzymatic ribosylation by α-D-ribose-1-phosphate, calf PNP wild type; format: biochemical; conditions: for Vmax (relative): relative to Vmax of guanine ribosylation under the same conditions (=100), 40 mM HEPES, pH 7, error ~10%
T4 construct: made in house; host or cells: E. coli
T4 sequence (P55859 1-289): T2 sequence (P55859 1-289)
Method: as §1, §2

[4] = biological target: T5, E.coli PNP-wt (purine-nucleoside phosphorylase) (Escherichia coli, UniProt P0ABP8); assay: enzymatic ribosylation of nucleobase analogs by α-D-ribose-1-phosphate, E. coli PNP wild type; format: biochemical; conditions: for Vmax (relative): relative to Vmax of guanine ribosylation under the same conditions (=100), 40 mM HEPES, pH 7, error ~10%
T5 construct: made in house; host or cells: E. coli
T5 sequence (P0ABP8 2-239 limits assumed): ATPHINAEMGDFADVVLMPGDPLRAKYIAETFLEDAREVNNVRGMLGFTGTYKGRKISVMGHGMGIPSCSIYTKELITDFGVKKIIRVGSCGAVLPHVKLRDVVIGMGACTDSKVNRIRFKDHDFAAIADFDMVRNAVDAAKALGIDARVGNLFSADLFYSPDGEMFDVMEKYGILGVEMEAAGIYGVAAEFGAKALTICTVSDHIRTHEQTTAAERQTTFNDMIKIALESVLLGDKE
Method: as §1, with “For kinetic analyses, enzymatic ribosylation reactions were carried out in 1 mL cuvettes (pathlength 4 mm) in ~50 mM HEPES buffer, pH 7.3, using ca.” left out
as §2

calf PNP-mutantN243D = biological target: T6, calf PNP-mutantN243D (Bos taurus, UniProt P55859, N243D); assay: enzymatic ribosylation by α-D-ribose-1-phosphate, calf PNP N243D mutant; format: biochemical
T6 construct: made in house; host or cells: E. coli
T6 sequence (P55859 1-289 N243D): T2 sequence (P55859 1-289) with N243D
Method: as §1, §2

[5] = ionization constants (spectrophotometric titrations)
calf PNP [6] = biological target: T2, calf PNP; set-up: method as in PMID 29376769; conditions: cited from earlier work
E. coli PNP [7] = biological target: T1, E. coli PNP; set-up: method as in PMID 29376769; conditions: cited from earlier work
calf PNP [8] = biological target: T2, calf PNP; assay: inhibition of guanine ribosylation catalyzed by calf PNP; format: biochemical; conditions: similar conditions as with E. coli PNP
Method: (§3) N^2,3-etheno-O^6-methylguanine (3) effectively competes with guanine in the ribosylation process, acting as quasi inhibitor of the E. coli PNP, with estimated Kiapp value 7.5 ± 0.8 μM (competitive model; average of 3 determinations), in agreement with the Km value, estimated from kinetic data (see the previous paragraph).
as §1

E. coli PNP [9] = biological target: T1, E. coli PNP; assay: inhibition of guanine ribosylation catalyzed by E. coli PNP; format: biochemical
Method: We conclude that inability of the enzyme to ribosylate (2) is not due to geometric hindrance, but rather should be ascribed to unfavorable energetic factors, in accordance with previous reports about the relative instability of the glycosidic bond in this compound [23].
as §3, §1

[10] = substrate: O=c1c2[nH]cnc2nc2[nH]ccn12; assay: enzymatic ribosylation of nucleobase analogs by α-D-ribose-1-phosphate, E. coli PNP wild type; format: biochemical; conditions: other: ribosylation, 40 mM HEPES buffer, pH 7, α-D-ribose-1-phosphate, standard errors ~15%
Method: as §1, with “For kinetic analyses, enzymatic ribosylation reactions were carried out in 1 mL cuvettes (pathlength 4 mm) in ~50 mM HEPES buffer, pH 7.3, using ca.” left out
as §2

[11] = 40 mM HEPES buffer, pH 7, α-D-ribose-1-phosphate
[12] = aqueous, pKa ±0.1, lower (basic) value, protonation to the cation
[13] = aqueous, pKa ±0.1, upper (acidic) value, deprotonation to the monoanion
[14] = no reaction traces even with 10-fold higher enzyme concentrations

T3 sequence (P0ABP8 2-239 D205N): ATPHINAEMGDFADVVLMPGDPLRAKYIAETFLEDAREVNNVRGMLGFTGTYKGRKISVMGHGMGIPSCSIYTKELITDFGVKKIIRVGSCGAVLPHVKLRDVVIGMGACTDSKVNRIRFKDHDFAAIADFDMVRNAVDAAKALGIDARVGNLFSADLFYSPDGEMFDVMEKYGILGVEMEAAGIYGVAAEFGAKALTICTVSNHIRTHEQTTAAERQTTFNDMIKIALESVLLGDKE

Molecule: 1,N^6-etheno-N7-β-D-ribosylisoguanosine [N7-riboside (6)]
phosphorolysis (in words) (E. coli PNP [1]): Even more rapid

Molecule: 1,N^6-etheno-N^6-β-D-ribosylisoguanosine [N^6-riboside (7)]
phosphorolysis (in words) (calf PNP [2]): only slowly deribosylated
phosphorolysis (in words) (E. coli PNP [1]): much more rapidly

Molecule: 1,N^6-ethenoisoguanine
Vmax (relative) (E.coli PNP-mutantD204N): >5
Vmax (relative) [3]: 1.6
Km ([3]; ribosylation, 40 mM HEPES buffer, pH 7, α-D-ribose-1-phosphate, standard errors ~15%): ~160 µM
Km ([4]; 50 mM HEPS buffer, pH 7.3, R1P 0.5 mM, 25 °C (Figure S3), read-out: Km from double-reciprocal plots): 98 µM
Vmax (relative) [4]: ~24
Km ([4]; ribosylation, 40 mM HEPES buffer, pH 7, α-D-ribose-1-phosphate, standard errors ~15%, read-out: Km): 98 µM
Approximate Product Ratio: N9: N7-riboside: N^6-riboside (calf PNP-mutantN243D; [11]): predominantly N^6
Vmax (relative) (calf PNP-mutantN243D; relative to Vmax of guanine ribosylation under the same conditions (=100), 40 mM HEPES, pH 7, error ~10%): ~1
pKa ±0.1, lower (basic) value ([5]; aqueous, protonation to the cation): 3.5
fitted pKa, lower (basic) value ([5]; spectrophotometric titration, pH 2.9 to 5.5, ±0.2 (Figure S2)): 3.5
fitted pKa, upper (acidic) value ([5]; spectrophotometric titration, pH 6.25 to 11.5, ±0.2 (Figure S2)): 8.1
pH of probable second deprotonation ([5]; spectrophotometric titrations): ~ 13

Molecule: O=c1c2nc[nH]c2[nH]c2nccn12 [1,N^2-ethenoguanine, 5,9-dihydro-9-oximidazo{1,2-a}purine]
Approximate Product Ratio: N9: N7-riboside: N^6-riboside (E.coli PNP-mutantD204N; [11]): predominantly N9
Vmax (relative) (E.coli PNP-mutantD204N): >15
Approximate Product Ratio: N9: N7-riboside: N^6-riboside [3, 11]: predominantly N9
ribosylation rate, fold slower than the ribosylation of guanine ([3]; pH 7.3, HEPES buffer, 25 °C): ca. 100 fold
Vmax (relative) [3]: <0.5
Approximate Product Ratio: N9: N7-riboside: N^6-riboside [4, 11]: predominantly N9
Vmax (relative) [4]: 18
share of the one main product in the reaction mixture (HPLC) ([4]; ribosylation, product identical to the chemically generated nucleoside): > 95%
ribosylation rate, fold slower than the ribosylation of guanine (calf PNP-mutantN243D; pH 7.3, HEPES buffer, 25 °C): ca. 100 fold
pKa [5, 12]: ~2
pKa [5, 13]: ~9.5

phosphorolysis (in words) (calf PNP [2]): no marked phosphorolysis
pKa [5, 13]: 8.8
Molecule: O=c1c2ncn([C@@H]3O[C@H](CO)[C@@H](O)[C@H]3O)c2nc2[nH]ccn12 [1,N^2-ethenoguanosine]

Molecule: OC[C@H]1O[C@@H](n2cnc3c2ncn2ccnc32)[C@H](O)[C@@H]1O [1,N^6-ethenoadenosine]
phosphorolysis (in words) (calf PNP [6]): resistant
phosphorolysis (in words) (E. coli PNP [7]): rapidly phosphorolysed

Molecule: O=c1[nH]c2c(ncn2[C@@H]2O[C@H](CO)[C@@H](O)[C@H]2O)c2nccn12 [N9-riboside (5), 1,N^6-etheno-N9-β-D-ribosylisoguanosine]
phosphorolysis (in words) (calf PNP [2]): not phosphorolysed
phosphorolysis (in words) (E. coli PNP [1]): fairly rapid
pKa [5, 12]: 2.4
pKa [5, 13]: 7.1

Molecule: COc1nc2nccn2c2[nH]cnc12 [N^2,3-etheno-O^6-methylguanine]
inhibition of guanine ribosylation (in words) (calf PNP [8]): no such inhibition is observed
Ki (E. coli PNP [9]; competition with guanine in ribosylation, competitive model, average of 3 determinations, read-out: estimated Kiapp): 7.5 ± 0.8 µM
Vmax (relative) [3]: <0.1
Vmax (relative) [4]: ~0.3
pKa [5, 12]: ~3.5
pKa [5, 13]: ~9

Molecule: O=c1nc2[nH]ccn2c2nc[nH]c12 [N^2,3-ethenoguanine]
Ki (E. coli PNP [9]; guanine as substrate of the ribosylation reaction, possibly competitive inhibition, read-out: estimated Ki): 38 µM
substrate activity in ribosylation (in words) [3, 14]: not a substrate
Vmax (relative) [3]: <0.1
substrate activity in ribosylation (in words) [4, 14]: not a substrate
Vmax (relative) [4]: <0.1
pKa [5, 12]: ~2.5
pKa [5, 13]: 8.8

Molecule: Nc1nc(=O)[nH]c2c1ncn2[C@@H]1O[C@H](CO)[C@@H](O)[C@H]1O [isoguanosine, reference compound]
phosphorolysis (in words) (calf PNP [2]): did not see any such reaction
Vmax of phosphorolysis, fold lower than that for guanosine (E. coli PNP [1]; data not shown): ca. 40 fold

B1: E.coli PNP-wt (purine-nucleoside phosphorylase) (Escherichia coli K-12) (protein)
chain: T5 sequence (P0ABP8 2-239 limits assumed)
notes: made in house; host or cells: E. coli
Km [10]: 48 µM
